From ChEMBL document CHEMBL3352803, “Peripherally restricted CB1 receptor blockers” (Bioorg Med Chem Lett, 2013)

Assays:
Rattus norvegicus [1] = organism: Rattus norvegicus; assay: Receptor occupancy at CB1 receptor in diet-induced obese rat assessed as weight loss; assay type: functional
Cannabinoid receptor 1 [2] = molecular target: T1, Cannabinoid receptor 1 (Homo sapiens, UniProt P21554); assay: Binding affinity to human CB1 receptor
[3] = Protein binding in rat plasma at 10 mg/kg; assay type: ADME, organism-based; design: dose 10 mg/kg; details: read-out: PPB
[4] = Cmax in rat at 10 mg/kg; assay type: ADME, organism-based; design: dose 10 mg/kg; details: in vivo
[5] = Lipophilicity, log D of the compound; assay type: physicochemical; details: octanol/water
Cannabinoid receptor 1 [6] = molecular target: T1, Cannabinoid receptor 1; assay: Inverse agonist activity at human CB1 receptor
Nucleic Acid [7] = assay: Ratio of drug uptake in plasma to brain of po dosed mouse; assay type: ADME, organism-based; details: in vivo
Cannabinoid receptor 1 [8] = molecular target: T1, Cannabinoid receptor 1; assay: Binding affinity at CB1 receptor (unknown origin)
Nucleic Acid [9] = assay: Ratio of drug uptake in plasma to brain of C57BL/6J mouse; assay type: ADME; details: in vivo
Rattus norvegicus [10] = assay: Receptor occupancy at CB1 receptor in rat frontal cortex at 10 mg/kg, po; assay type: functional
Rattus norvegicus [11] = assay: Receptor occupancy at CB1 receptor in rat frontal cortex at 3 to 10 mg/kg, po; assay type: functional; details: dose mg/kg 3-10
Cannabinoid receptor 1 [12] = molecular target: T2, Cannabinoid receptor 1 (Rattus norvegicus, UniProt P20272); assay: Antagonist activity at rat CB1 receptor
Brain [13] = assay: Drug uptake in rat brain; assay type: ADME, tissue-based; details: in vivo, read-out: Drug uptake
Cannabinoid receptor 1 [14] = molecular target: T1, Cannabinoid receptor 1; assay: Antagonist activity at human CB1 receptor
Brain [15] = assay: Drug uptake in mouse brain; assay type: ADME, tissue-based; details: in vivo, read-out: Drug uptake
Cannabinoid receptor 1 [16] = molecular target: T2, Cannabinoid receptor 1; assay: Inverse agonist activity at rat CB1 receptor
Mus musculus = assay: Ex vivo binding affinity at CB1 receptor in mouse at 10 mg/kg, iv; assay type: functional

T1 sequence (P21554 whole entry): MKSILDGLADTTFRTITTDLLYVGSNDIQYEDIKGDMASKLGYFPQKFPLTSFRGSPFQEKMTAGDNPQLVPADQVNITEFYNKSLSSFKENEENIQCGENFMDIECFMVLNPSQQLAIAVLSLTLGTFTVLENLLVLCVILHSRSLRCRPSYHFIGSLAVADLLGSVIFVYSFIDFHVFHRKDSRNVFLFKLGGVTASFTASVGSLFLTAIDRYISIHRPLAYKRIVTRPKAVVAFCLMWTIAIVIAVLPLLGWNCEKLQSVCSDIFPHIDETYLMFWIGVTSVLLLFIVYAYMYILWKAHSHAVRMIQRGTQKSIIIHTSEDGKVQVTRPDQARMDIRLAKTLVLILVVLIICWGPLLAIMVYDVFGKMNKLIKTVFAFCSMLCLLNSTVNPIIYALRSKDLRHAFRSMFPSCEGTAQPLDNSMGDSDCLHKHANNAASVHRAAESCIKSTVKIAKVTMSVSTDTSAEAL
T2 sequence (P20272 whole entry): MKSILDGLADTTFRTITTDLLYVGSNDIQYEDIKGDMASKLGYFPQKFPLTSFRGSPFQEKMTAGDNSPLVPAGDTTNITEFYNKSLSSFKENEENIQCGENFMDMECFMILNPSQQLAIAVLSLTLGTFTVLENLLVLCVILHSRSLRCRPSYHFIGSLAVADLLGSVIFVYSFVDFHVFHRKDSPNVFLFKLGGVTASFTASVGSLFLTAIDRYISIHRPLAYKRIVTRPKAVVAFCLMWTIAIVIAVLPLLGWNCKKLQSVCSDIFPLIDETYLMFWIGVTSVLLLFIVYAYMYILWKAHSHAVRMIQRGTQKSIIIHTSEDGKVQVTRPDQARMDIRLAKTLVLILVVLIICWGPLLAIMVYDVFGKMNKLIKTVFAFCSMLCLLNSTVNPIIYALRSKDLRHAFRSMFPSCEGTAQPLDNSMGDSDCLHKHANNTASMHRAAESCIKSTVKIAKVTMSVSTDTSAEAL

C[C@H](NC(=O)C(C)(C)Oc1ccc(C(F)(F)F)cn1)[C@@H](Cc1ccc(Cl)cc1)c1cccc(C#N)c1 [TARANABANT]
Occ (Rattus norvegicus [1]): 30%

CC1(C)C(=O)N(c2ccc(F)c(C(F)(F)F)c2)C(=O)C1Cc1ccc(F)cc1NC(=O)Nc1ccc(S(N)(=O)=O)cc1 (stereo not given)
IC50 (Cannabinoid receptor 1 [2]): 10 nM
Ki (Cannabinoid receptor 1 [2]): 9 nM
fraction unbound [3]: < 0.01
Cmax [4]: 430 nM
logD [5]: 3.66

CCc1c(C(=O)NN2CCCCC2)nn(-c2ccc(Cl)cc2Cl)c1-c1ccc(C#Cc2ccc(C(F)(F)F)cc2)s1
IC50 (Cannabinoid receptor 1 [6]): 8.5 nM
Ratio (Nucleic Acid [7]): 1.2
Ki (Cannabinoid receptor 1 [8]): 3 nM
Ratio (Nucleic Acid [9]): 33

CN/C(=N\S(=O)(=O)c1ccc(Cl)cc1)N1C[C@H](c2ccccc2)C(c2ccc(Cl)cc2)=N1 [IBIPINABANT]
Occ (Rattus norvegicus [10]): 11%

Cc1c(C(=O)NN2CCCCC2)nn(-c2ccc(Cl)cc2Cl)c1-c1ccc(Cl)cc1 [RIMONABANT]
Occ (Rattus norvegicus [11]): >65%

Cc1c(/C=C/C(=O)NCc2cccc(Cl)c2)nn(-c2ccc(Cl)cc2Cl)c1-c1ccc(Cl)cc1
IC50 (Cannabinoid receptor 1 [12]): 159 nM

Cc1c(C(=O)NN2CCS(=O)(=O)CC2)nn(-c2ccc(Cl)cc2Cl)c1-c1ccc(C#CCCC#N)cc1
concentration (Brain [13]): 50 nM
Ratio (Nucleic Acid [7]): 33
Ki (Cannabinoid receptor 1 [14]): 1 nM
concentration (Brain [15]): 50 nM

CCCCCCc1nc(-c2ccc(Cl)cc2)n(-c2ccc(Cl)cc2Cl)n1
IC50 (Cannabinoid receptor 1 [16]): 690 nM
IC50 (Cannabinoid receptor 1 [6]): 631 nM

CS(=O)(=O)NCCCn1c(C(=O)N2CCC(C(N)=O)(N3CCC(F)(F)CC3)CC2)cc(-c2ccc(Cl)cc2Cl)c1-c1ccc(Cl)cc1
Activity (Mus musculus): 28%
